Results as given in PubChem BioAssay AID2305 (GlaxoSmithKline (GSK), 2010).

test system: P. falciparum 3D7 growth, pLDH absorbance; test: blood-stage malaria parasite growth potency – strain 3D7, dose response (AID 2305)

Point of comparison: `Cc1cc(NC2CCCC2)nc(Nc2ccccc2C)n1`, IC50 1.35 µM. Against it:
- CCOc1ccccc1CNc1nccc(NCCc2cn(C)c3ccccc23)n1 — within 1.5-fold, 1.26 µM
- CCN(CC)CCN(Cc1ccc(-c2ccc(C(F)(F)F)cc2)cc1)C(=O)Cn1c(CCc2cccc(F)c2F)nc(=O)c2cc(F)ccc21 — 1.6-fold lower, 0.83 µM
- CC(C)=CC1C(C(=O)n2c(N)nc3ccccc32)C1(C)C (stereo unspecified) — 7.1-fold lower, 0.19 µM
- Cc1onc(-c2ccccc2Cl)c1C(=O)Nc1cc(Cl)c(Cl)cc1Cl — within 1.5-fold, 1.18 µM
- CC[C@H]1CN2CC[C@H]1C[C@H]2[C@H](O)c1cc(-c2ccc(SC)cc2)nc2ccc(OC)cc12 — 23-fold lower, 0.06 µM
- COc1cc(NC(=O)c2cc3c(C)nn(-c4cccc(C(F)(F)F)c4)c3s2)cc(OC)c1OC — 1.7-fold lower, 0.8 µM
- COc1cccc(CN(C(=O)Nc2ccccc2F)[C@H]2C[C@H]3C(=O)Nc4cc(F)ccc4C(=O)N3C2)c1 — 1.6-fold lower, 0.84 µM
- O=C(Nc1ccc(-c2nc3ccccc3[nH]2)cc1)c1cnc(Cl)c(Cl)c1 — 1.8-fold lower, 0.73 µM
- N#Cc1nc2ccc(OCCN(Cc3ccccc3C(F)(F)F)c3ccc(C#N)c(C(F)(F)F)c3)cc2s1 — 1.6-fold lower, 0.86 µM
- CN(C)c1nc(NCc2ccccc2)nc(NN=Cc2cc([N+](=O)[O-])ccc2O)n1 — 2-fold lower, 0.69 µM
- O=C(NCCc1cccc(F)c1)c1ccc(N2CCN(c3ccncc3)CC2)cn1 — within 1.5-fold, 1.02 µM
- O=C(Nc1ccc(Cn2ncc(N3CCCNCC3)c(Cl)c2=O)cc1)Nc1cccc(SC(F)(F)F)c1 — 2-fold lower, 0.68 µM
- Cc1cccc2[nH]c(-c3cccc(-c4cccc(NC(=O)c5ccc(=O)[nH]n5)c4)c3)nc12 — 1.7-fold lower, 0.79 µM
- CC(C)NCc1ccc(-c2ccc(NC(=O)c3ccc(Cl)cc3)cc2)cc1 — within 1.5-fold, 0.91 µM
- CC(C)CNc1c2c(nc3cnn(-c4c5c(nc6cn[nH]c46)CCCC5)c13)CCCC2 — 1.7-fold lower, 0.79 µM
- CC(C)(C)c1ccc(CNC(=O)/C=C/c2ccc(CNC3CCNCC3)cc2)cc1 — within 1.5-fold, 1.09 µM
- CC[C@H]1CN(Cc2ccco2)CC[C@H]1CCCc1ccnc2ccc(O)cc12 — within 1.5-fold, 1.27 µM
- CC(CCCCC(=O)Nc1ccc(C(F)(F)F)cc1)NCC(O)c1cccc(Cl)c1 (stereo unspecified) — 4.8-fold lower, 0.28 µM
- CC(C)CNCc1cccc(-c2cccc(CNc3ccc4ncccc4c3)c2)c1 — within 1.5-fold, 0.95 µM
- CCN(CC)CCN(Cc1ccc(-c2ccc(C(F)(F)F)cc2)cc1)C(=O)Cn1c(CCc2cc(F)c(F)c(F)c2)nc(=O)c2ccccc21 — 1.6-fold lower, 0.83 µM
- c1cc(-c2ccc(CNCCCn3ccnc3)cc2)cc(-c2nc3ccccc3[nH]2)c1 — 12-fold lower, 0.11 µM
- COc1ccc(CN2CCCN(Cc3cccc(C(=O)Nc4ccc(C)c(F)c4)c3)CC2)cc1 — within 1.5-fold, 1.31 µM
- Cc1[nH]c(C)c(Cc2ccc(Oc3ccc(OC(F)(F)F)cc3)cc2)c(=O)c1Br — 2-fold lower, 0.69 µM
- CC(=NO)C1=C(O)C(c2ccccc2)N(c2ccccc2)C1=O (stereo unspecified) — 1.9-fold lower, 0.7 µM
- c1ccc(CN2CCC(NCc3ccc(-c4cncc5ccccc45)cc3)CC2)cc1 — 1.5-fold lower, 0.88 µM
- C=C[C@H]1CN(CCCCCCC)CC[C@H]1C[C@@H](Cc1ccnc2ccc(OC)cc12)OC(=O)[C@](OC)(c1ccccc1)C(F)(F)F — 1.5-fold lower, 0.88 µM
- CN=C(Nc1c(Cl)cccc1Cl)N(C)C — 1.6-fold lower, 0.82 µM
- CCCCCCN1CCCN(Cc2ccc(C(=O)Nc3ccc(F)c(F)c3)cc2)CC1 — 2.2-fold lower, 0.61 µM
- CCCC(=O)c1cnc2c(Oc3cc(Cl)ncn3)cccc2c1Nc1ccccc1C — 4-fold lower, 0.34 µM
- O=C(Nc1cn(-c2ccc(OCc3cccc(F)c3)c(Cl)c2)c2ncncc12)c1ccncc1 — 7.9-fold lower, 0.17 µM
- O=C(Nc1cc(C(F)(F)F)ccc1Cl)c1ccc(Cn2cc(Br)cn2)cc1 — the same, 1.35 µM
- N#Cc1ccc2c(c1)CCN(CCC1CCC(NC(=O)c3ccc(-c4ccccn4)s3)CC1)CC2 (stereo unspecified) — within 1.5-fold, 1.01 µM
- CCOC(=O)c1cnc2cc(N3CCCC3)c(Cl)cc2c1OCC — 12-fold lower, 0.11 µM
- Cc1cccc2[nH]c(-c3ccc(-c4cccc(CN5CCC(CCN6CCCCC6)CC5)c4)s3)nc12 — 9.6-fold lower, 0.14 µM
- Cn1cnc2c(Nc3ccncc3)nc(-c3ccc4ccccc4c3)nc21 — 1.6-fold lower, 0.87 µM
- COc1cc(F)c2ncc(Cl)c(CCN3CCC(NCc4ccc5c(c4)OCCO5)CC3)c2c1 — 2.9-fold lower, 0.47 µM
- N#Cc1ccc(N[C@@H](CC2CCCCC2)C(=O)Nc2ccc(-c3ccccc3)cc2)c2ccccc12 — 2.3-fold lower, 0.6 µM
- c1ccc(C(OCCC2CCN(Cc3cccc4cccnc34)CC2)c2ccccc2)cc1 — 1.6-fold lower, 0.87 µM
- CCCCCN1CCCCC(NS(=O)(=O)c2ccc(C(=O)Nc3cccc(C(F)(F)F)c3)cc2)C1 (stereo unspecified) — 1.8-fold lower, 0.75 µM
- O=C(Nc1cccc(C(F)(F)F)c1)c1ccc(S(=O)(=O)NCC2CCCN(CC3CCCCC3)C2)cc1 (stereo unspecified) — 1.5-fold lower, 0.9 µM
- O=C(Nc1ccc(Cl)c(Cl)c1)Nc1cc(C(F)(F)F)ccc1Cl — within 1.5-fold, 1.44 µM
- CN(C)c1cccc(NC(=O)NC2N=C(c3ccccc3)c3ccccc3N(CC(=O)N(C)c3ccccc3)C2=O)c1 (stereo unspecified) — within 1.5-fold, 0.95 µM
- CC(=O)Nc1ccc(CN(Cc2ccc(C)cc2)Cc2cccc(Oc3ccccc3)c2)cc1 — within 1.5-fold, 1.05 µM
- COc1cccc2cc(C(=O)N[C@@H](CC(C)C)C(=O)N[C@H](/C=N/N(C)C(=O)OC(C)(C)C)CC(=O)OC(C)(C)C)oc12 — 2.1-fold lower, 0.65 µM
- CN(C)CCCNCCS(=O)(=O)c1cccc(Nc2ccc(-c3cccc(N(C)C)c3)cn2)c1 — 1.6-fold lower, 0.86 µM
- CNCCCn1c(N(C)C)nc2cc(-n3cnc4cc(-c5ccc(Cl)cc5)sc4c3=O)ccc21 — within 1.5-fold, 1.14 µM
- Cc1cc(-c2ccc3c(c2)CC[C@@H](N[C@@H](C)c2ccccc2)C3)cnc1N — within 1.5-fold, 1.73 µM
- Oc1[nH]c2ccccc2c1N=NC(=S)N1CCOCC1 — within 1.5-fold, 0.91 µM
- O=S(=O)(NC1CCN(c2ccnc3ccccc23)C1)c1ccc(OC(F)(F)F)cc1 (stereo unspecified) — within 1.5-fold, 1.08 µM
- CCCCCCCN(CCCCCCC)CCCC(=O)Nc1ccnc2ccc(OC)cc12 — 9-fold lower, 0.15 µM
- CC(OC(=O)c1ccc(C(=O)NCC2CC2)cc1)C(C)(C)C (stereo unspecified) — 1.7-fold lower, 0.79 µM
- NC(N)=NN=Cc1ccc2ccc3ccccc3c2c1 — 3.6-fold lower, 0.38 µM
- Cc1cc(F)ccc1C1CCN(CCCCNC(=O)c2ccc(NC(=O)c3ccc(Cl)cc3)cc2)CC1 — 2-fold lower, 0.69 µM
- O=C(/C=C/c1ccc(Cl)c(Cl)c1)NCCCCCCN1CCN(C(=O)Nc2ccc(C(F)(F)F)cc2)CC1 — 3.4-fold lower, 0.4 µM
- Clc1nc2ccccn2c1C=Cc1ccc2ccccc2n1 — 5-fold lower, 0.27 µM
- CCCCCCN(CCCCCC)CC(O)c1c(OC)ccc2ccccc12 (stereo unspecified) — 2.4-fold lower, 0.57 µM
- COCCNCc1ccc(-c2cccc(CNC3CCN(Cc4ccccc4)CC3)c2)cc1 — 4.1-fold lower, 0.33 µM
- N#Cc1cccc(Nc2nccc(Nc3ccc(Oc4ccccc4)cc3)n2)c1 — 1.6-fold lower, 0.83 µM
- CN(C)Cc1ccc(-c2cccc(NC(=O)c3ccc(Cl)cc3)c2)cc1 — 1.5-fold lower, 0.9 µM
- COc1cccc(NC(=O)Cn2c(C)c(C(=O)C(F)(F)F)c3ccccc32)c1 — 1.6-fold lower, 0.83 µM
- COc1cc(C2CCCCC2)c(OC)cc1CC1c2cc(O)c(Cl)cc2CCN1C (stereo unspecified) — 3-fold lower, 0.45 µM
- COc1c(C2CCN(CCCCNC(=O)c3cccc(-c4ccc(C(F)(F)F)cc4)c3)CC2)ccc2c1CCCC2 — 1.7-fold lower, 0.78 µM
- CC[C@H]1CN2CC[C@H]1C[C@H]2[C@H](O)c1cc(-c2ccc(OC(F)(F)F)cc2)nc2ccc(OC)cc12 — 27-fold lower, 0.05 µM
- COCCC[C@H]1C(=O)O[C@H]2CCC[C@@H]21 — 1.9-fold lower, 0.7 µM
- O=C(O)C[C@H](NC(=O)[C@@H]1CCCN1C(=O)c1cccc(-c2ccc(Cl)c(Cl)c2)c1)C(=O)O — 1.6-fold lower, 0.86 µM
- Cc1cc(C)cc(OCC(O)CN(Cc2cc(Cl)cc(Cl)c2)C(=O)Nc2ccc(Cl)cc2)c1 (stereo unspecified) — 1.7-fold lower, 0.81 µM
- COc1ccc(-c2cc(C(=O)N[C@@H](CC3CCCCC3)C(=O)NCCN3CCCCC3)ccc2O)cc1 — within 1.5-fold, 0.95 µM
- CCCCCCOc1ccc(C(N)=NCc2ccccc2)c2c1CCCC2 — within 1.5-fold, 1.27 µM
- CC(C)C[C@H](Nc1ccnc(NCC2CCCCC2)n1)C(=O)NCCc1ccccc1 — 1.8-fold lower, 0.75 µM
- Cc1[nH]c(C)c(-c2ccc(Br)cc2)c(=O)c1Br — 2.1-fold lower, 0.64 µM
